“Also recorded” adds a separate entry of the source.
Columns and labels:
T. b. brucei [1] = experiment: Antitrypanosomal assay, T. brucei Squib 427, resazurin viability; format: cell-based; settings: for times more potent than 1 against T. b. brucei: relative to 1
TbrPDEB1 = TbrPDEB1 (Trypanosoma brucei, UniProt Q8WQX9); experiment: TbrPDEB1 enzyme assay (PDELight HTS cAMP phosphodiesterase kit); format: biochemical, T. brucei
PDE5 = PDE5 (Homo sapiens, UniProt O76074); experiment: PDE5 inhibition; format: biochemical
T. b. brucei [2] = experiment: Acute (stage-I) mouse model of T. b. brucei infection; format: in vivo
human PDE4D2 = human PDE4D2 (Homo sapiens, UniProt Q08499); experiment: Eurofins Safety-47 panel, PDE4D2; settings: read-out: inhibition of human PDE4D2
human PDE4D2, sequence (Q08499 303-809): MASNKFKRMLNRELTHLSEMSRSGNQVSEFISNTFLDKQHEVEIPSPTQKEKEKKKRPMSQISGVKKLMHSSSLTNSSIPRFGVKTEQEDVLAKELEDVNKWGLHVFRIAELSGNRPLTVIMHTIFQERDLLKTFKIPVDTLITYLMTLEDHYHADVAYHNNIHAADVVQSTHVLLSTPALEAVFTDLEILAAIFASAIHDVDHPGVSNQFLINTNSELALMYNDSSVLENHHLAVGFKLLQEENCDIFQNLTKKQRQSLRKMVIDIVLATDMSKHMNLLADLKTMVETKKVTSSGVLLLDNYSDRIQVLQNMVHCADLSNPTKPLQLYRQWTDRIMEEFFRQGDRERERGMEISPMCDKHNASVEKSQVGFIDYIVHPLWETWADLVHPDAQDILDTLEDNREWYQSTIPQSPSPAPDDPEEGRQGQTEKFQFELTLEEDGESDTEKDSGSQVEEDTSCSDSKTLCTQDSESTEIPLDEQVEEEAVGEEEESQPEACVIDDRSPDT

TbrPDEB1, sequence (Q8WQX9 entry or part of it): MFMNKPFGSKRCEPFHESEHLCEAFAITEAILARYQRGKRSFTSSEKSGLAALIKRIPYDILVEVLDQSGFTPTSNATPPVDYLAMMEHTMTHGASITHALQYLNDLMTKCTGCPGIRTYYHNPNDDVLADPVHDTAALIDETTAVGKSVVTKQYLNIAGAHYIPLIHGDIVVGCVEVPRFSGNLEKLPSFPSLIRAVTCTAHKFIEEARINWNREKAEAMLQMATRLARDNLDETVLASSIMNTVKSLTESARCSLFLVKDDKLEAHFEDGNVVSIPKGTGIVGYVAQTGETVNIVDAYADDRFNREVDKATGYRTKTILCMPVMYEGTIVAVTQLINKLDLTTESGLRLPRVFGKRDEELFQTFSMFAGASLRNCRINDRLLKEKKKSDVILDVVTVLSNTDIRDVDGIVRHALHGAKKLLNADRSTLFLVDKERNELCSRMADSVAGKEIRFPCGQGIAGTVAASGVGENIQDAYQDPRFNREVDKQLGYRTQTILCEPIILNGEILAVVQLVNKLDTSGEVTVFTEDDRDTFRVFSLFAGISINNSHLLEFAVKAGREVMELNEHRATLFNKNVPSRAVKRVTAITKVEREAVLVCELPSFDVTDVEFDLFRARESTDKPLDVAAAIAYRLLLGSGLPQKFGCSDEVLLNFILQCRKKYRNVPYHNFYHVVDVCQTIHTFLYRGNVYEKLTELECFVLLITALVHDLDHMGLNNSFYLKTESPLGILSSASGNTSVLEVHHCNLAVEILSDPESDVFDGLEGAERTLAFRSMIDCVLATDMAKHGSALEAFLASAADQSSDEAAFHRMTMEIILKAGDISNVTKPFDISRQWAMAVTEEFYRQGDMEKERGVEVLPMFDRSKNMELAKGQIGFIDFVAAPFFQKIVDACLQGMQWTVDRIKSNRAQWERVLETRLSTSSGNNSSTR

SMILES: CC(C)c1n[nH]c2c(=O)[nH]c(-c3ccccc3)nc12 [compound 15, 3-Isopropyl-5-phenyl-1,6-dihydro-7H-pyrazolo[4,3-d]pyrimidin-7-one]
- times more potent than 1 against T. b. brucei (T. b. brucei [1]): 125 times

SMILES: CC(C)c1n[nH]c2c(=O)[nH]c(-c3ccncc3)nc12 [compound 16, 3-Isopropyl-5-(pyridin-4-yl)-1,6-dihydro-7H-pyrazolo[4,3-d]pyrimidin-7-one]
- times more potent than 1 against T. b. brucei (T. b. brucei [1]): 16 times

SMILES: COc1ccccc1-c1nc2c(C(C)C)n[nH]c2c(=O)[nH]1 [compound 22, 3-Isopropyl-5-(2-methoxyphenyl)-1,6-dihydro-7H-pyrazolo[4,3-d]pyrimidin-7-one]
- reduction in potency against T. b. brucei compared with 15 (T. b. brucei [1]; relative to 15): 25 fold

SMILES: CC(C)c1n[nH]c2c(=O)[nH]c(-c3ccc(F)cc3)nc12 [compound 30, 5-(4-Fluorophenyl)-3-isopropyl-1,6-dihydro-7H-pyrazolo[4,3-d]pyrimidin-7-one]
- TbrPDEB1 inhibition pKi (TbrPDEB1): inactive
- inhibition at 10 µM (PDE5): 52%
- time by which all animals relapsed and succumbed (T. b. brucei [2]; 25 mg/kg b.i.d. for 5 days): ≤ 11 dpi
- outcome of treatment (parasitemia / cure) (T. b. brucei [2]; 50 mg/kg PO twice daily for 5 consecutive days, follow-up 60 dpi): all infected mice were cured; also recorded: apparent full clearance of parasitemia; also recorded: complete cure
- inhibition at 10 µM (human PDE4D2): 75%

SMILES: CC(C)c1n[nH]c2c(=O)[nH]c(-c3ccc(N4CCN(C)CC4)cc3)nc12 [compound 45, 3-Isopropyl-5-(4-(4-methylpiperazin-1-yl)phenyl)-1,6-dihydro-7H-pyrazolo[4,3-d]pyrimidin-7-one]
- IC50 (T. b. brucei [1]; Trypanosoma brucei, T. brucei Squib 427 strain, 72 h drug exposure, highest concentration 64 μM, mean of at least two independent experiments, read-out: T. b. brucei pIC50 (converted)): 20 µM
